Assay results taken from ChEMBL document CHEMBL1201862, “PubChem BioAssay data set” (2004).
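Each compound was tested at five concentrations against cells in 96-well plates for 48 hours. Here, GI50 denotes the concentration required for 50% inhibition of growth.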 Activity calls are given as the source filed them. Rule as the data show it: active = GI50 up to about 1.1 µM and inactive = higher.

Legend:
Test in all cases: NCI anticancer screen, dose series, 48 h
Hs-578T = test system: Hs-578T
MCF7 = test system: MCF7
786-0 = test system: 786-0
SK-OV-3 = test system: SK-OV-3
OVCAR-4 = test system: OVCAR-4
SF-268 = test system: SF-268
UO-31 = test system: UO-31
ACHN = test system: ACHN
RXF 393 = test system: RXF 393
EKVX = test system: EKVX
SK-MEL-2 = test system: SK-MEL-2
HOP-92 = test system: HOP-92
SNB-19 = test system: SNB-19
M14 = test system: M14
SNB-75 = test system: SNB-75
T47D = test system: T47D
BT-549 = test system: BT-549
PC-3 = test system: PC-3
K562 = test system: K562
RPMI-8226 = test system: RPMI-8226

Compound	GI50 (Hs-578T)	GI50 (MCF7)	GI50 (786-0)	GI50 (SK-OV-3)	GI50 (OVCAR-4)	GI50 (SF-268)	GI50 (UO-31)	GI50 (ACHN)	GI50 (RXF 393)	GI50 (EKVX)	GI50 (SK-MEL-2)	GI50 (HOP-92)	GI50 (SNB-19)	GI50 (M14)	GI50 (SNB-75)	GI50 (T47D)	GI50 (BT-549)	GI50 (PC-3)	GI50 (K562)	GI50 (RPMI-8226)
O=C(O)CSc1ncccc1[N+](=O)[O-]	> 100 µM (inactive)	> 100 µM (inactive)	> 100 µM (inactive)	> 100 µM (inactive)	> 100 µM (inactive)	> 100 µM (inactive)	> 100 µM (inactive)	> 100 µM (inactive)	> 100 µM (inactive)	> 100 µM (inactive)	> 100 µM (inactive)	> 100 µM (inactive)	> 100 µM (inactive)	> 100 µM (inactive)	> 100 µM (inactive)	> 100 µM (inactive)	> 100 µM (inactive)	> 100 µM (inactive)	> 100 µM (inactive)	–
CC(C)(C)c1ccc2c(c1)C#Cc1cc3c(cc1OCCCO2)C#Cc1cc(C(C)(C)C)ccc1OCCCO3	> 100 µM (inactive)	> 100 µM (inactive)	> 100 µM (inactive)	> 100 µM (inactive)	> 100 µM (inactive)	> 100 µM (inactive)	–	> 100 µM (inactive)	> 100 µM (inactive)	> 100 µM (inactive)	> 100 µM (inactive)	> 100 µM (inactive)	> 100 µM (inactive)	> 100 µM (inactive)	–	> 100 µM (inactive)	1.72 µM (inactive)	> 100 µM (inactive)	> 100 µM (inactive)	> 100 µM (inactive)
Cc1cccc(Nc2nc(NNC(=O)Cc3ccccc3)nc(NNC(=O)c3ccncc3)n2)c1	> 10 µM (inactive)	> 10 µM (inactive)	> 10 µM (inactive)	> 10 µM (inactive)	> 10 µM (inactive)	> 10 µM (inactive)	> 10 µM (inactive)	> 10 µM (inactive)	> 10 µM (inactive)	> 10 µM (inactive)	–	> 10 µM (inactive)	> 10 µM (inactive)	> 10 µM (inactive)	> 10 µM (inactive)	> 10 µM (inactive)	> 10 µM (inactive)	> 10 µM (inactive)	–	> 10 µM (inactive)
Cc1ccc2c(c1)-c1c(C#N)c(N)nc(-c3ccc(Cl)cc3)c1CCS2(=O)=O	6.15 µM (inactive)	5.37 µM (inactive)	6.19 µM (inactive)	8.38 µM (inactive)	> 83 µM (inactive)	20.1 µM (inactive)	5.74 µM (inactive)	8.77 µM (inactive)	–	20.8 µM (inactive)	8.67 µM (inactive)	44.5 µM (inactive)	13.2 µM (inactive)	5.21 µM (inactive)	3.21 µM (inactive)	17.3 µM (inactive)	13.6 µM (inactive)	5.48 µM (inactive)	2.8 µM (inactive)	3.66 µM (inactive)
COc1cc(/C=C2\C(=O)N(Cc3ccccc3)C(c3ccccc3)S2(=O)=O)cc(OC)c1OC (stereo not given)	9.73 µM (inactive)	26.3 µM (inactive)	29.6 µM (inactive)	> 100 µM (inactive)	17.5 µM (inactive)	31.3 µM (inactive)	21.8 µM (inactive)	67.3 µM (inactive)	62.7 µM (inactive)	17.1 µM (inactive)	27.1 µM (inactive)	50.2 µM (inactive)	> 100 µM (inactive)	52.7 µM (inactive)	–	29.2 µM (inactive)	36.3 µM (inactive)	43 µM (inactive)	5.12 µM (inactive)	–
CCN1CCC(O)(c2ccc(Oc3ccccc3)cc2)C(C(=O)c2ccc(Oc3ccccc3)cc2)C1 (stereo not given)	23.7 µM (inactive)	3.63 µM (inactive)	5.5 µM (inactive)	–	10.6 µM (inactive)	16.3 µM (inactive)	7.94 µM (inactive)	15.5 µM (inactive)	22.2 µM (inactive)	16 µM (inactive)	15.1 µM (inactive)	8.87 µM (inactive)	14.6 µM (inactive)	11.6 µM (inactive)	14.5 µM (inactive)	11.6 µM (inactive)	10.5 µM (inactive)	13 µM (inactive)	13.7 µM (inactive)	2.46 µM (inactive)
CC(C#N)Nc1ccc(Oc2ccc(C(C)(C)c3ccc(Oc4ccc(NC(C)C#N)cc4)cc3)cc2)cc1 (stereo not given)	18 µM (inactive)	6.25 µM (inactive)	> 100 µM (inactive)	> 100 µM (inactive)	> 100 µM (inactive)	86.5 µM (inactive)	5.08 µM (inactive)	> 100 µM (inactive)	> 100 µM (inactive)	> 100 µM (inactive)	> 100 µM (inactive)	31.4 µM (inactive)	> 100 µM (inactive)	> 100 µM (inactive)	92.5 µM (inactive)	0.409 µM (active)	> 100 µM (inactive)	79.4 µM (inactive)	> 100 µM (inactive)	–
